Laboratory results taken from publication PMC10229121, “An acetylation-mediated chromatin switch governs H3K4 methylation read-write capability” (eLife, 2023).
Entries after “also recorded” stand apart in the source; their conditions may differ.

Test system: H3K4 methylation and H3 acetylation in MCF-7 breast cancer cells
Experiment: Middle-down mass spectrometry of histone H3 from MCF-7 cells ± KDAC inhibition (H3K4 methylation and H3 acetylation)
Format: cell-based
Details: for 0ac state, percent of total H3 / 1ac state, percent of total H3 / 2ac state, percent of total H3 / 3ac state, percent of total H3 / 4ac state, percent of total H3 / 5ac state, percent of total H3: MCF-7, 5 mM butyrate 1H; for percent H3K4me3: sheet percentsk4me3
Experimental: MCF-7 breast cancer cells (ATCC HTB-22) were grown in MEM (Gibco) supplemented with 10% fetal bovine serum (VWR), 100 I.U. penicillin, 100 µg/mL streptomycin (Corning), 0.01 mg/mL human recombinant insulin (Gibco), and 5 µg/mL plasmocin (Invivogen) at 37 °C and 5% CO2. HEK-293 (ATCC CRL-1573) was grown in DMEM (Gibco) supplemented with 10% fetal bovine serum (Corning), 100 I.U. penicillin, and 100 µg/mL streptomycin (Gibco) at 37 °C and 5% CO2. Both cell lines were authenticated via STR profiling and confirmed to be Mycoplasma negative.
For mass spectrometric (MS) analysis ± KDAC inhibition, cells were cultured in 150 mm dishes to ~80% confluence and treated with 5 mM sodium butyrate (or equivalent volume of water) in triplicate for 0, 10, 20, 30, 60, 120 min. […] Histones were acid extracted after nuclei isolation as described ([Holt et al., 2021]). Isolated histones were resuspended in 85 µL 5% acetonitrile, 0.2% trifluoroacetic acid (TFA), and resolved by offline high-performance liquid chromatography (HPLC) as described ([Holt et al., 2021]). […] After chromatographic separation and fraction collection, histone H3.1 was selected, diluted in 100 mM ammonium acetate (pH = 4), and digested with Glu-C protease (Roche) at 10:1 protein:enzyme for 1 hr at room temperature prior to mass spectrometric analysis.
The digested samples were diluted to 2 µg/µL. Online HPLC was performed on a U3000 RSLC nano Pro-flow system using a C3 column (Zorbax 300 SB-C3, 5 µm; Agilent). Samples were maintained at 4 °C and 1 µL injected for each analysis using a microliter pickup. […] The column eluant was introduced into an Orbitrap Fusion Lumos mass spectrometer (Thermo Fisher) by nano-electrospray ionization. A static spray voltage of 1900 V and an ion transfer tube temperature of 320 °C were set for the source.
A Fusion Lumos mass spectrometer was used to generate MS data. The 9th charge state of histone H3 was targeted for analysis. MS1 analysis was acquired in the orbitrap with a normal mass range and a 60 k resolution setting in positive ion mode. An Automatic Gain Control (AGC) target of 5.0E5 with a 200 ms maximum injection time, three microscans, and a scan range of 585–640 m/z was used to identify desired ions for fragmentation. MS2 acquisition was performed in both orbitrap and ion trap modes. Both modes used electron transfer dissociation (ETD), a reaction time of 18ms, and an injection time of 200 ms. A normal scan range was used for the orbitrap mode with a resolution setting of 30 k and an AGC target of 5.0E5, with two micro scans. A narrow scan range of 470–530 m/z, targeting ions indicative of K4 modification states, was used for the ion trap mode MS2 with an ACG target of 3.0E4, quadrupole isolation, maximum injection time of 100ms, and eight microscans.
These MS methods were used with two technical replicates per biological replicate (n=3). An MS ion trap mode with a targeted mass list was used to increase sensitivity to identify known low-abundance K4me3-containing proteoforms. The ion trap MS2 spectra were averaged for each H3 acetyl state based on known retention times, and the intensities of ions indicative of the K4 methylation states were manually recorded. Retention times for each acetyl state were approximated as 0ac 35–40 min, 1ac 45–55 min, 2ac 55–60 min, 3ac 62–68 min, 4ac 69–73 min, and 5ac 74–78 min. Precursor mass was used as an additional confirmation and filter of the correct acetyl state. For scans yielding low signal and high noise (i.e. 5ac at 0 min butyrate treatment), data were manually curated before averaging. Within acetyl states, the relative proportion of fragment ions for unmodified, mono-, di-, and tri-methylation of the H3K4 ion at respective m/z of 474, 488, 502, and 516 were recorded per MS run. Values were averaged across replicates of the same conditions and normalized to one hundred percent. A two-tailed t-test was used for significance. […]

CCCC(=O)O [sodium butyrate]
0ac state, percent of total H3 (AVG n=3): 38.12% | 1ac state, percent of total H3 (AVG n=3): 25.98% | 2ac state, percent of total H3 (AVG n=3): 20.63% | 3ac state, percent of total H3 (AVG n=3): 12.03% | 4ac state, percent of total H3 (AVG n=3): 2.14% | 5ac state, percent of total H3 (AVG n=3): 1.10% | 0ac state, percent of total H3 (normalized, replicate 1): 53.59% | 1ac state, percent of total H3 (normalized, replicate 1): 15.56% | 2ac state, percent of total H3 (normalized, replicate 1): 13.01% | 3ac state, percent of total H3 (normalized, replicate 1): 15.85% | 4ac state, percent of total H3 (normalized, replicate 1): 1.53% | 5ac state, percent of total H3 (normalized, replicate 1): 0.47% | 0ac state, percent of total H3 (normalized, replicate 2): 28.79% | 1ac state, percent of total H3 (normalized, replicate 2): 37.29% | 2ac state, percent of total H3 (normalized, replicate 2): 21.30% | 3ac state, percent of total H3 (normalized, replicate 2): 8.21% | 4ac state, percent of total H3 (normalized, replicate 2): 3.37% | 5ac state, percent of total H3 (normalized, replicate 2): 1.05% | 0ac state, percent of total H3 (normalized, replicate 3): 31.98% | 1ac state, percent of total H3 (normalized, replicate 3): 25.08% | 2ac state, percent of total H3 (normalized, replicate 3): 27.59% | 3ac state, percent of total H3 (normalized, replicate 3): 12.04% | 4ac state, percent of total H3 (normalized, replicate 3): 1.54% | 5ac state, percent of total H3 (normalized, replicate 3): 1.77% | percent H3K4me3 (MCF-7, 5 mM butyrate 10M, 0ac, AVG n=3): 1.08% | percent H3K4me3 (MCF-7, 5 mM butyrate 10M, 1ac, AVG n=3): 0.40% | percent H3K4me3 (MCF-7, 5 mM butyrate 10M, 2ac, AVG n=3): 1.95% | percent H3K4me3 (MCF-7, 5 mM butyrate 10M, 3ac, AVG n=3): 2.18% | percent H3K4me3 (MCF-7, 5 mM butyrate 10M, 4ac, AVG n=3): 1.30% | percent H3K4me3 (MCF-7, 5 mM butyrate 10M, 5ac, AVG n=3): 0.42% | percent H3K4me3 (MCF-7, 5 mM butyrate 30M, 0ac, AVG n=3): 1.93% | percent H3K4me3 (MCF-7, 5 mM butyrate 30M, 1ac, AVG n=3): 1.29% | percent H3K4me3 (MCF-7, 5 mM butyrate 30M, 2ac, AVG n=3): 1.93% | percent H3K4me3 (MCF-7, 5 mM butyrate 30M, 3ac, AVG n=3): 1.64% | percent H3K4me3 (MCF-7, 5 mM butyrate 30M, 4ac, AVG n=3): 2.14% | percent H3K4me3 (MCF-7, 5 mM butyrate 30M, 5ac, AVG n=3): 4.20% | percent H3K4me3 (MCF-7, 5 mM butyrate 60M, 1ac, AVG n=3): 1.27% | percent H3K4me3 (MCF-7, 5 mM butyrate 60M, 2ac, AVG n=3): 1.44% | percent H3K4me3 (MCF-7, 5 mM butyrate 60M, 3ac, AVG n=3): 1.39% | percent H3K4me3 (MCF-7, 5 mM butyrate 120M, 0ac, AVG n=3): 1.23% | percent H3K4me3 (MCF-7, 5 mM butyrate 120M, 1ac, AVG n=3): 1.92% | percent H3K4me3 (MCF-7, 5 mM butyrate 120M, 2ac, AVG n=3): 2.41% | percent H3K4me3 (MCF-7, 5 mM butyrate 120M, 3ac, AVG n=3): 1.99% | percent H3K4me3 (MCF-7, 5 mM butyrate 120M, 4ac, AVG n=3): 4.58% | percent H3K4me3 (MCF-7, 5 mM butyrate 120M, 5ac, AVG n=3): 21.35% | H3K4 methylation, in words (MCF-7, 5 mM sodium butyrate): increase in all H3K4 methyl states relative to the unmodified state concomitant with increasing states of H3 acetylation; also recorded: H3K4me3 levels most dramatically increased in tandem with the 5ac H3 state; also recorded: H3K4 methylation increased for the most highly acetylated proteoforms | H3 poly-acetylation, in words (MCF-7, 5 mM sodium butyrate): H3 poly-acetylation rapidly increased
